The text below walks through data of the NIST ThermoML archive (doi:10.1016/j.fluid.2006.06.022).

The conditions of this series: Liquid, Ebulliometric method (Recirculating still).

What is called vapor or sublimation pressure is the pressure of vapour in equilibrium with the condensed phase.

± gives the expanded uncertainty stated by the source.

Take `CCC` [propane]: the “vapor or sublimation pressure” value stood at 1374 ± 6 kPa (313.15 K); 1712 ± 8 kPa (323.15 K); 2115 ± 9 kPa (333.15 K); 2586 ± 11 kPa (343.15 K); 3151 ± 14 kPa (353.15 K); 3767 ± 16 kPa (363.15 K).

Turning to `CC(F)(F)F` [1,1,1-trifluoroethane], the “vapor or sublimation pressure” value is on record as 1831 ± 9 kPa (313.15 K), 2307 ± 10 kPa (323.15 K) and 2874 ± 13 kPa (333.15 K).
